Where “and” joins values, the source holds several entries; their conditions need not be identical. Equal values may be shown once. ± gives the expanded uncertainty stated by the source.
Key:
[1] = for vapor or sublimation pressure: Closed cell (Static) method; for Normal melting temperature: DTA
[2] = Molar enthalpy of transition or fusion; conditions: Crystal; DSC

COC(=O)c1cccnc1 [3-pyridinecarboxylic acid methyl ester]
vapor or sublimation pressure, [1]
Conditions | Crystal | Liquid
273.23 K | 0.000651 ± 9.6e-05 kPa and 0.000658 ± 9.6e-05 kPa | –
278.2 K | 0.001228 ± 0.00011 kPa and 0.001214 ± 0.00011 kPa | –
283.18 K | 0.002269 ± 0.00013 kPa | –
283.19 K | 0.002282 ± 0.00013 kPa and 0.002271 ± 0.00013 kPa | –
288.16 K | 0.00406 ± 0.00019 kPa and 0.004076 ± 0.00019 kPa | –
293.16 K | 0.007304 ± 0.0003 kPa and 0.007318 ± 0.0003 kPa | –
298.14 K | 0.0127 ± 0.00051 kPa | 0.01819 ± 0.00059 kPa
298.15 K | – | 0.01819 ± 0.00059 kPa
298.16 K | 0.01269 ± 0.00051 kPa | –
303.13 K | – | 0.02715 ± 0.00073 kPa and 0.02712 ± 0.00073 kPa
303.14 K | 0.0216 ± 0.00065 kPa and 0.02159 ± 0.00065 kPa | –
305.12 K | – | 0.03186 ± 0.0008 kPa
305.13 K | – | 0.03188 ± 0.0008 kPa
307.11 K | – | 0.03712 ± 0.00088 kPa and 0.03709 ± 0.00088 kPa
308.1 K | 0.03586 ± 0.00087 kPa | –
308.11 K | 0.03587 ± 0.00087 kPa | –
309.1 K | – | 0.0431 ± 0.00098 kPa and 0.04306 ± 0.00098 kPa
310.6 K | 0.04566 ± 0.001 kPa | –
310.61 K | 0.04595 ± 0.001 kPa and 0.04557 ± 0.001 kPa | –
311.07 K | – | 0.0502 ± 0.0011 kPa
311.08 K | – | 0.05006 ± 0.0011 kPa
313.07 K | – | 0.05817 ± 0.0012 kPa
313.08 K | – | 0.05817 ± 0.0012 kPa
315.06 K | – | 0.06722 ± 0.0014 kPa
315.07 K | – | 0.06704 ± 0.0014 kPa
317.04 K | – | 0.07707 ± 0.0015 kPa
317.05 K | – | 0.07715 ± 0.0015 kPa
318.08 K | – | 0.08317 ± 0.0016 kPa
318.11 K | – | 0.0833 ± 0.0016 kPa
319.09 K | – | 0.08886 ± 0.0017 kPa
321.08 K | – | 0.102 ± 0.0019 kPa and 0.103 ± 0.0019 kPa
323.09 K | – | 0.1177 ± 0.0021 kPa
324.06 K | – | 0.1247 ± 0.0022 kPa and 0.1246 ± 0.0022 kPa

Conditions | Normal melting temperature [°C]
[1], Crystal | 39.5 ± 0.4

Conditions | Molar enthalpy of transition or fusion [kcal/mol]
[2] | 4.61 ± 0.167

COC(=O)c1ccccn1 [methyl 2-pyridinecarboxylate]
vapor or sublimation pressure, [1]
Conditions | Crystal | Liquid
273.21 K | – | 0.00051 ± 9.4e-05 kPa and 0.000505 ± 9.4e-05 kPa
278.18 K | – | 0.00086 ± 0.0001 kPa and 0.000856 ± 0.0001 kPa
278.2 K | 0.000582 ± 9.6e-05 kPa and 0.00058 ± 9.6e-05 kPa | –
280.67 K | 0.000793 ± 0.0001 kPa | –
280.68 K | 0.000794 ± 0.0001 kPa | –
283.15 K | 0.001087 ± 0.00011 kPa | 0.001403 ± 0.00011 kPa
283.16 K | 0.001086 ± 0.00011 kPa | 0.001399 ± 0.00011 kPa
285.65 K | 0.001476 ± 0.00011 kPa and 0.001472 ± 0.00011 kPa | –
288.13 K | – | 0.002242 ± 0.00013 kPa
288.14 K | 0.001988 ± 0.00013 kPa | 0.002246 ± 0.00013 kPa
288.15 K | 0.001989 ± 0.00013 kPa | –
290.63 K | 0.002681 ± 0.00015 kPa | –
290.65 K | 0.002682 ± 0.00015 kPa | –
293.12 K | – | 0.00357 ± 0.00017 kPa
293.13 K | – | 0.003566 ± 0.00017 kPa
298.15 K | – | 0.005628 ± 0.00024 kPa and 0.005601 ± 0.00024 kPa
303.15 K | – | 0.008522 ± 0.00035 kPa and 0.008506 ± 0.00035 kPa
308.08 K | – | 0.0128 ± 0.00051 kPa
308.11 K | – | 0.01279 ± 0.00051 kPa
313.12 K | – | 0.01919 ± 0.00061 kPa
313.13 K | – | 0.01916 ± 0.00061 kPa
318.09 K | – | 0.02771 ± 0.00074 kPa and 0.02763 ± 0.00074 kPa
323.05 K | – | 0.03968 ± 0.00092 kPa
328.04 K | – | 0.05628 ± 0.0012 kPa and 0.05632 ± 0.0012 kPa
333.01 K | – | 0.0787 ± 0.0015 kPa
333.02 K | – | 0.07876 ± 0.0015 kPa
337.99 K | – | 0.1088 ± 0.002 kPa
340.47 K | – | 0.127 ± 0.0023 kPa

Conditions | Normal melting temperature [°C]
[1], Crystal | 16.1 ± 0.5

Conditions | Molar enthalpy of transition or fusion [kcal/mol]
[2] | 4.02 ± 0.0956

COC(=O)c1ccncc1 [methyl 4-pyridinecarboxylate]
[1], Liquid
Conditions | vapor or sublimation pressure
273.26 K | 0.002588 ± 0.00014 kPa
275.74 K | 0.003349 ± 0.00016 kPa and 0.003323 ± 0.00016 kPa
278.22 K | 0.004243 ± 0.00019 kPa
278.23 K | 0.004253 ± 0.00019 kPa
280.71 K | 0.005373 ± 0.00023 kPa and 0.005383 ± 0.00023 kPa
283.19 K | 0.006753 ± 0.00028 kPa
285.66 K | 0.008443 ± 0.00034 kPa
288.16 K | 0.01054 ± 0.00042 kPa
290.65 K | 0.01308 ± 0.00051 kPa
293.15 K | 0.01615 ± 0.00056 kPa
293.16 K | 0.01617 ± 0.00056 kPa
295.65 K | 0.0199 ± 0.00062 kPa
298.13 K | 0.02427 ± 0.00069 kPa
298.14 K | 0.02428 ± 0.00069 kPa
300.63 K | 0.0296 ± 0.00077 kPa and 0.02961 ± 0.00077 kPa
303.12 K | 0.03595 ± 0.00087 kPa
303.13 K | 0.03597 ± 0.00087 kPa
305.62 K | 0.04347 ± 0.00098 kPa
305.63 K | 0.04348 ± 0.00098 kPa
308.09 K | 0.05219 ± 0.0011 kPa
310.59 K | 0.06266 ± 0.0013 kPa
310.6 K | 0.0627 ± 0.0013 kPa
313.07 K | 0.07495 ± 0.0015 kPa and 0.0749 ± 0.0015 kPa
315.54 K | 0.08924 ± 0.0017 kPa
315.56 K | 0.08934 ± 0.0017 kPa
318.03 K | 0.1062 ± 0.002 kPa
320.52 K | 0.1256 ± 0.0023 kPa

Conditions | Normal melting temperature [°C]
[1], Crystal | 10.2 ± 0.9

Conditions | Molar enthalpy of transition or fusion [kcal/mol]
[2] | 3.49 ± 0.167

— the NIST ThermoML archive (doi:10.1021/je060472e)
